# In patent publication EP2963103A1, “pH-sensitive nanocapsules” (Henkel AG & Co. KGaA, priority 2014, dated 2016):
# Experiments:
# [1] = Hansen-Parameter, cited from earlier work; for δp: dipolar forces; for δd: dispersion forces; for δh: hydrogen bonds
# [2] = Hansen-Parameter, δt^2 = δd^2 + δp^2 + δh^2
# Excerpt: Damit die hydrophobe Verbindung effektiv verkapselt werden kann, ist es erforderlich, dass die Verbindung ausreichend hydrophob ist, so dass sie nicht mit dem aus den Monomeren gebildeten Polymer derart interagiert, dass sie dieses übermäßig quellen und dadurch für die Verbindung stärker permeabel werden lässt. Es ist daher bevorzugt, dass die mindestens eine hydrophobe Verbindung einen Hansen-Parameter δt von weniger als 20, insbesondere weniger als 19 hat; und/oder einen Hansen-Parameter δh von weniger als 10, insbesondere weniger als 6 hat.
# Der Hansen-Parameter ist ein in der Polymerchemie weit verbreiteter Parameter zum Vergleich der Löslichkeit bzw. Mischbarkeit von verschiedenen Substanzen. Dieser Parameter wurde von Charles Hansen entwickelt, um die Löslichkeit eines Materials in einem anderen vorherzusagen. Dabei wird die Kohäsionsenergie einer Flüssigkeit betrachtet, welche in mindestens drei verschiedene Kräfte eingeteilt werden kann: (a) Dispersionskräfte zwischen den Molekülen δd, (b) Dipolare intermolekulare Kräfte zwischen den Molekülen δp und (c) Wasserstoffbrückenbindungen zwischen den Molekülen δh. Diese drei Parameter können zu einem Parameter δt zusammengefasst werden nach der Formel δt^2 = δd^2 + δp^2 + δh^2. Je ähnlicher der Hansen-Parameter von unterschiedlichen Materialien ist, desto besser sind diese ineinander mischbar.
# Tabelle 3 gibt die Hansen-Parameter für die getesteten Riechstoffe an. Tabelle 3: Hansen-Parameter
# [3] = Encapsulation efficiency EEsc / solid content, gravimetric after freeze-drying; assay type: physicochemical; conditions: fragrance encapsulated with Monomermischung S1
# Excerpt: Der Feststoffgehalt (SC) wurde […] Proben bestimmt. Vorher wurden zwei verschiedene theoretische Feststoffgehalte berechnet. SC1 ohne die Masse des Riechstoffs und SC2 […] Bestimmung des […] und […] bei der Messung des Feststoffgehalts SC2 mitbestimmt. Unter […] bei Polymerisation kann durch den Vergleich des praktisch gemessenen Feststoffgehalts SC mit den oben genannten theoretischen Werten die Menge an […]. Der Anteil an […] zur Einsatzmenge bei […].: Encapsulation Efficiency) EEsc in Prozent angegeben. Der theoretisch berechneten Feststoffgehalt SC1 betrugt 14,3%. Die Angabe […] 1 zeigt, dass der Riechstoff eingeschlossen wurde und […]. Die […]. Die in den Beispielen 1 und 2 verwendete Monomermischung S1 wurde für die Verkapselung weiterer Riechstoffe verwendet und die […] oben […]. Die […]
δt [2],Verkapselungseffizienz EEsc [3] [%],Molecule,δp [1],δd [1],δh [1]
"19,72",4,C=CC(C)CCCC(C)(C)O (centres unmarked) [Dihydromyrcenol],"4,3",16,"10,7"
"18,49",,CC/C=C\CC1=C(C)CCC1=O [Jasmone],"5,2",17,"5,1"
"18,10",77,"CC(C=O)Cc1ccc(C(C)(C)C)cc1 (centres unmarked) [Lilial, 3-(4-tert-Butylphenyl)-2-methylpropanal]","2,3","17,3","4,8"
"24,09",,OCCc1ccccc1 [Phenylethylalkohol],"7,6","18,8",13
"18,94",52,C/C=C\C(=O)C1C(C)=CCCC1(C)C (stereo not drawn) [α-Damascone],"5,7","17,1","5,8"
,91,CC1=CCC2CC1C2(C)C (stereo not drawn) [α-Pinen],"4,3","15,6",0
"18,84",72,C/C=C/C(=O)C1=C(C)CCCC1(C)C [β-Damascone],"4,9","17,4","5,3"
,0,Hexenol,"6,7",16,"13,4"

Molecule,δt [2],Verkapselungseffizienz EEsc [3] [%],δp [1],δd [1],δh [1]
CC(C)=CCCC(C)CC=O (centres unmarked) [Citronellal],"18,01",72,"5,9","16,2","5,2"
CC(C)=CCCC(C)CCO (centres unmarked) [Citronellol],"19,97",25,"4,8","16,1","10,8"
CC(C)=CCC/C(C)=C/CO [Geraniol],"20,25",0,,,
Ionon,"18,94",46,"5,7","17,1","5,8"
